Results: patent publication US4746668A, “Method for treating retinopathy” (Daiichi Seiyaku Co., Ltd., priority 1986, dated 1988)
Several values for one entry are separate records, joined by “and”; a condition that tells them apart may be missing. Identical values can stand only once. Like-named read-outs stand apart in the source and are kept apart here.

Legend:
[1] = test system: retinal vesseles; settings: injected into retinal artery of rabbit; cited from earlier work
[2] = test system: human whole blood aggregation; assay: Inhibition by Compound A of human whole blood aggregation (Impedance method); format: cell-based
Protocol: (§1) Blood was taken from median cubital vein or cephalic vein of normal men aged of 29 to 40, who had taken no anti-inflammatory drug at least for the last 10 days before testing, into a syringe containing 0.1 volume of 40 U/ml heparin aqueous solution (a product of Green Cross Corp., Japan).
(§2) Compound A was dissolved in a saline, and the solution obtained was used in the experiment.
(§3) As an aggregation inducing agent, an aqueous solution prepared by dissolving epinephrine or a platelet activating factor (hereinafter, PAF) in 25 mM Tris HCl-130 mM NaCl aqueous solution (pH 7.4) was used in the experiment.
(§4) 5 μl of saline solution of Compound A prepared in 1-4 was added to 1 ml of the whole blood, neutrophil suspension or PRP and an electrode was dipped thereinto. The mixture obtained was incubated for 2 minutes under the conditions that the temperature in cell was 37° C. and the stirring rate was 1000 r.p.m., and then 20 μl of aggregation inducing agent was added to the mixture. 4 minutes later, the variation in impedance (Δ.OMEGA.) was determined using Chrono-log aggregometer (540 type, a product of Chrono-log Co., Ltd). The intensity of the variation gave the aggregation activity. In determining the aggregation of neutrophils, 5 μg/ml of cytochalasin B was added to the incubated mixture, one minute prior to the addition of PAF solution. As a control, saline was used instead of saline solution of Compound A and the aggregation was determined as described above.

[3] = test system: human neutrophils; assay: Inhibition by Compound A of PAF-induced adhesion-aggregation of human neutrophils (Impedance method); format: cell-based; settings: Neutrophil, 10 μM Compound A, 0.02 μM, read-out: Inhibition ratio
Protocol: as §1
10 ml of the blood obtained above was mixed with 3 ml of a 4.5% dextran aqueous solution, and the mixture was allowed to stand for 1 hour at room temperature. The supernatant was taken and centrifuged at 250 X g for 7 minutes. The precipitate was taken, and 3 ml of 0.2% sodium chloride aqueous solution was added thereto to lyse the red blood cells. The mixture was allowed to stand for 75 seconds and 7 ml of a 1.2% sodium chloride aqueous solution was added thereto. […] It was confirmed that the surviving ratio of nuetrophil in the resulting suspension was over 95% as determined by the trypan blue staining method. […]
5 μl of saline solution of Compound A prepared in 1-4 was added to 1 ml of the whole blood, neutrophil suspension or PRP and an electrode was dipped thereinto. […] 4 minutes later, the variation in impedance (Δ.OMEGA.) was determined using Chrono-log aggregometer (540 type, a product of Chrono-log Co., Ltd). […] As a control, saline was used instead of saline solution of Compound A and the aggregation was determined as described above.

[4] = test system: human neutrophil aggregation; assay: Inhibition by Compound A of PAF-induced human neutrophil aggregation (Optical method); format: cell-based
Protocol: as §1
10 ml of the blood obtained above was mixed with 3 ml of a 4.5% dextran aqueous solution, and the mixture was allowed to stand for 1 hour at room temperature. The supernatant was taken and centrifuged at 250 X g for 7 minutes. The precipitate was taken, and 3 ml of 0.2% sodium chloride aqueous solution was added thereto to lyse the red blood cells. The mixture was allowed to stand for 75 seconds and 7 ml of a 1.2% sodium chloride aqueous solution was added thereto. The mixture was centrifuged at 250 X g for 7 minutes to obtain the precipitate which contained mainly neutrophils. When the red blood cell was not sufficiently removed, the above procedure for lysis of red blood cell was repeated. The precipitate was washed with 10 ml of a phosphate buffer solution containing 0.5% glucose (hereinafter, PBSG), and the mixture was centrifuged at 250 X g for 7 minutes to take the precipitate. The above washing procedure was repeated twice, and the precipitate obtained was added to PBSG or PBSG containing 0.5% human serum albumin to obtain the neutrophil suspension. It was confirmed that the surviving ratio of nuetrophil in the resulting suspension was over 95% as determined by the trypan blue staining method. A blood cell counter (a product of Nihon Koden Co., Ltd) was used to count the number of neutrophils. The mixture was preserved at 4° C. before use. […]
5 μl of saline solution of Compound A prepared in 1-4) was added to 1 ml of neutrophil suspension and the mixture was incubated for 2 minutes under the conditions that the temperature in cell was 37° C. and the stirring rate was 1,000 r.p.m. […] The aggregation was determined optically using the Chrono-log aggregometer. As a control, saline was used instead of saline solution of Compound A and the aggregation was determined as described above.

[5] = test system: human platelet aggregation; assay: Inhibition by Compound A of PAF-induced human platelet aggregation; format: cell-based
Protocol: as §1
The blood obtained in (1) was centrifuged at 190 X g for 7 minutes. The supernatant was taken to obtain the platelets rich plasma (hereinafter, PRP). Platelet counter (a product of Toa Co., Ltd) was used to count the number of platelets.
as §2, §3, §4

[6] = Acute toxicity (LD50) in rats, oral; settings: rat, in vivo, administered orally
[7] = test system: diabetic retinopathy; assay: Clinical trial in patients having diabetic retinopathy, funduscopic observation; format: in vivo, human; design: key to Funduscopic observation: microaneurysms / Funduscopic observation: dot hemorrhage: +: observed; ±: slightly observed; -: not observed; settings: 300 to 900 mg daily orally; for Funduscopic observation: microaneurysms / Funduscopic observation: dot hemorrhage: + + at start
Protocol: Compound A was administered orally at dose of 300 to 900 mg daily to patients having diabetic retinopathy for a period of a month to about 2 years. Microaneurysms, dot hemorrhage, retina edema, hard exudate, arterialization and maculopathy in Fundus oculi, which were indications for retinopathy, were investigated using a funduscope.

[8] = test system: blood glucose level; settings: as disclosed in U.S. Pat. No. 4,138,491; cited from earlier work
[9] = test system: platelet aggregation; settings: as disclosed in U.S. Pat. No. 4,138,491; cited from earlier work
[10] = patient B, left eye, 116 weeks after administration
[11] = patient B, right eye, 116 weeks after administration

In the case of CCCCCCCCCCCCCCCCOCC(COP(=O)([O-])OCC[N+](C)(C)C)OC(C)=O (stereo not drawn) [PAF], the “state of retinal vessels” value [1] is given as “a sludge-like state is observed in retinal vesseles”.

c1ccc(C(CC2=NCCN2)c2ccccn2)cc1 (stereo not drawn) [Compound A, 2-(2-phenyl-2-(2-pyridyl))ethyl-2-imidazoline] gave an IC50 ([2]; Homo sapiens, in vitro, Epinephrine (2 μM), individual values of n = 3, read-out: IC50) of 5.6 µM, an IC50 ([2]; Homo sapiens, in vitro, Epinephrine (2 μM), n = 3, read-out: IC50, average ± s.d.) of 5.2 ± 0.7 µM and an IC50 ([2]; Homo sapiens, induced by PAF (0.02 μM), n=3, read-out: IC50, average) of 2.8 µM. For the same compound, the IC50 ([2]; Homo sapiens, induced by epinephrine (2 μM), n=3, read-out: IC50) was ~5 µM, the IC50 ([2]; in vitro, Epinephrine (2 μM), individual values of n = 3, read-out: IC50) was 4.2 µM and 5.8 µM and the IC50 ([2]; in vitro, PAF (0.02 μM), individual values of n = 3, read-out: IC50) was 1.8 µM and 4.6 µM. For the same compound, the inhibition at 10 µM [3] was 59%, the inhibition at 5 µM ([4]; Homo sapiens, Neutrophil, 5 μM Compound A, PAF, 2 μM, optical method, read-out: inhibition ratio) was 68% and the inhibition at 10 µM ([4]; Homo sapiens, Neutrophil, 10 μM Compound A, PAF, 2 μM, optical method, read-out: inhibition ratio) was 83%. The “PAF-induced human neutrophil aggregation” value ([4]; at low concentration) was “inhibited the PAF-induced human neutrophil aggregation at low concentration”, the inhibition at 10 µM ([5]; Homo sapiens, Platelet, 10 μM Compound A, PAF, 2 μM, read-out: Inhibition ratio) was 0% and the inhibition at 50 µM ([5]; Homo sapiens, Platelet, 50 μM Compound A, PAF, 2 μM, read-out: Inhibition ratio) was 45%. The inhibition at 100 µM ([5]; Homo sapiens, Platelet, 100 μM Compound A, PAF, 2 μM, read-out: Inhibition ratio) was 82%, the “PAF-induced human platelet aggregation” value ([5]; low versus high concentration) was “did not inhibit PAF-induced human platelet aggregation at a low concentration but did at a high concentration” and the LD50 [6] was 867 mg/kg. For the same compound, the “microaneurysms and dot hemorrhage” value ([7]; 3 patients) was “disappearance or reduction of microaneurysms and dot hemorrhage were observed”, the “Funduscopic observation: microaneurysms” value ([7]; patient A, left eye, 58 weeks after administration) was “-” and the “Funduscopic observation: microaneurysms” value ([7]; patient A, right eye, 58 weeks after administration) was “-”. The “Funduscopic observation: dot hemorrhage” value [7, 10] was “-”, the “Funduscopic observation: microaneurysms” value [7, 10] was “-” and the “Funduscopic observation: dot hemorrhage” value [7, 11] was “-”. The “Funduscopic observation: microaneurysms” value [7, 11] was “-”, the “Funduscopic observation: dot hemorrhage” value ([7]; patient C, left eye, 109 weeks after administration) was “±” and the “Funduscopic observation: dot hemorrhage” value ([7]; patient C, right eye, 109 weeks after administration) was “±”. The “blood glucose level” value [8] was “reduces the blood glucose level” and the “platelet aggregation” value [9] was “inhibits platelet aggregation”.
